Assay results taken from patent publication US11807640B1 (priority 2023, dated 2023).
Values after ≈ are worked out from the molar mass of the structure shown.

Tested on: Mycobacterium tuberculosis (MTB) H37Rv
Experiment: Resazurin Microplate Assay (REMA), anti-tubercular screening, H37Rv
Type: cell-based
Details: 192 h, Middlebrook 7H9 broth, 37° C., 8 days incubation then resazurin overnight, read-out: MIC (μg/mL) H37Rv

`CCOC(=O)c1cc(C(=O)c2ccc(F)cc2)n2ccc(C(=O)OC(C)C)cc12` [KNV-4, 1-Ethyl 7-isopropyl 3-(4-fluorobenzoyl)indolizine-1,7-dicarboxylate] was tested, and the MIC was 1 µg/mL (≈ 2.52 µM).

Molecule `COC(=O)c1c(C(=O)OC)c2cc(C(=O)OC(C)C)ccn2c1C(=O)c1ccc(Br)cc1` [KNV-7, 7-Isopropyl 1,2-dimethyl 3-(4-bromobenzoyl)indolizine-1,2,7-tricarboxylate] has an MIC of 1 µg/mL (≈ 1.99 µM).
